Experimental data from ChEMBL document CHEMBL6114983 (Bioorg Med Chem, 2025).
pIC50: −log10 of the molar value.

Molecular target: Glutaminyl-peptide cyclotransferase (Homo sapiens, UniProt Q16769)
Sequence (Q16769 whole entry): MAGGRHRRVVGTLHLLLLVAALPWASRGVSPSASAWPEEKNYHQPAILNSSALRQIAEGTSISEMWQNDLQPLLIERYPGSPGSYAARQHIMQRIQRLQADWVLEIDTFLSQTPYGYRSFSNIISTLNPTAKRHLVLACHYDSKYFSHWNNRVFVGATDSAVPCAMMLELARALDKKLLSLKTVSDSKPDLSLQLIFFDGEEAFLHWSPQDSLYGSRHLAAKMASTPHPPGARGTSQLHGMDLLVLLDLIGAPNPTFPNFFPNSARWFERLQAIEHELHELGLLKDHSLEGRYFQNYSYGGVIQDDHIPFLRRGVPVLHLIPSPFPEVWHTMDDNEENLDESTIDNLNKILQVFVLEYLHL

COc1ccc(N(C(=S)NCCCn2cncc2C)C2CCN(C)CC2)cc1OC
pIC50: 8.47
